# Measurements published in patent US12291518B2, “Thyroid hormone receptor agonists and use thereof” (Eccogene Inc., priority 2020, dated 2025).
# What was measured:
# THR beta-LBD = target: T1, THR beta-LBD (Homo sapiens, UniProt P10828); test: THR-β Coactivator Peptide Recruitment Assay (LanthaScreen TR-FRET); format: biochemical; settings: TR-FRET coactivator recruitment, THR beta-LBD 0.5 nM; for EC50: read-out: THRβ EC50
# T1 construct: THR beta-LBD (the final concentration is 0.5 nM) was added to the 384-well assay plate; purchased Invitrogen PV4686
# T1 sequence (P10828 217-461 limits assumed): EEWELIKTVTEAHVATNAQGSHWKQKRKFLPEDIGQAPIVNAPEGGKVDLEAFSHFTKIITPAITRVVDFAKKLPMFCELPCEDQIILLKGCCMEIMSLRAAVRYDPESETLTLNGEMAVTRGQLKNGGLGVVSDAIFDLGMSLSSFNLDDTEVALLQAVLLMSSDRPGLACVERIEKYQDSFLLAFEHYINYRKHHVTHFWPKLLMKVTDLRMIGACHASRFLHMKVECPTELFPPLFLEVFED
# Procedure, shortened: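 Agonist-driven coactivator recruitment read as a 520/495 nm TR-FRET emission ratio after 2 h at room temperature. Final concentrations: THR beta-LBD 0.5 nM, fluorescein-SRC2-2 peptide 0.1 nM, terbium anti-GST antibody 2 nM. EC50 from four-parameter dose-response fitting.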
# THR alpha-LBD = target: T2, THR alpha-LBD (Homo sapiens, UniProt P10827); test: THR-α Coactivator Peptide Recruitment Assay (LanthaScreen TR-FRET); format: biochemical; settings: TR-FRET coactivator recruitment, THR alpha-LBD 0.25 nM; for EC50: read-out: THRα EC50
# T2 construct: except that THR alpha-LBD of a final concentration 0.25 nM was used; purchased Invitrogen PV4687
# T2 sequence (P10827 163-410 isoform P10827-2 limits assumed, other chains not shown): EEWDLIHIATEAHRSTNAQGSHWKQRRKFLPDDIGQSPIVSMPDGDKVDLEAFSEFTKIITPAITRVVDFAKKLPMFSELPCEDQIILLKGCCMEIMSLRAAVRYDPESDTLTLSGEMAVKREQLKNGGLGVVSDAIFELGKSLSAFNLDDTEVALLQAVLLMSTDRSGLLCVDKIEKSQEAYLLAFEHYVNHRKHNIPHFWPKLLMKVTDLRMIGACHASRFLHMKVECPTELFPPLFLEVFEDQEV
# Procedure, shortened: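 TR-FRET coactivator recruitment with THR alpha-LBD at 0.25 nM final, Fluorescein-SRC2-2 peptide 0.1 nM and Tb-labeled anti-GST antibody 2 nM; 2 h incubation at room temperature. 520/495 nm emission ratio fitted to a four-parameter sigmoidal curve to give EC50.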
THRβ Emax (THR beta-LBD),EC50 (THR beta-LBD) [nM],THRα Emax (THR alpha-LBD),EC50 (THR alpha-LBD) [nM],SMILES
B (75~90),2 to 20,B (40~85),2 to 200,"O=c1[nH]c(=O)n(-c2cc(Cl)c(Oc3cc(S(=O)(=O)NC4CCOCC4)c(O)cn3)c(Cl)c2)nc1C(F)F [Compound 136, 2-(2,6-dichloro-4-(6-(difluoromethyl)-3,5-dioxo-4,5-dihydro-1,2,4-triazin-2(3H)-yl)phenoxy)-5-hydroxy-N-(tetrahydro-2H-pyran-4-yl)pyridine-4-sulfonamide]"
C (<75),20 to 100,B (40~85),> 1000,"CC(C)(O)CNS(=O)(=O)c1cc(Oc2c(Cl)cc(-n3nc(C(F)F)c(=O)[nH]c3=O)cc2Cl)ncc1O [Compound 137, 2-(2,6-dichloro-4-(6-(difluoromethyl)-3,5-dioxo-4,5-dihydro-1,2,4-triazin-2(3H)-yl)phenoxy)-5-hydroxy-N-(2-hydroxy-2-methylpropyl)pyridine-4-sulfonamide]"
C (<75),> 100,C (<40),> 1000,"C[C@]1(O)C[C@@H](NS(=O)(=O)c2cc(Oc3c(Cl)cc(-n4nc(C(F)F)c(=O)[nH]c4=O)cc3Cl)ncc2O)C1 [Compound 138, 2-(2,6-dichloro-4-(6-(difluoromethyl)-3,5-dioxo-4,5-dihydro-1,2,4-triazin-2(3H)-yl)phenoxy)-5-hydroxy-N-((1s,3s)-3-hydroxy-3-methylcyclobutyl)pyridine-4-sulfonamide]"
B (75~90),2 to 20,B (40~85),200 to 1000,"CO[C@H]1C[C@H](NS(=O)(=O)c2cc(Oc3c(Cl)cc(-n4nc(C(F)F)c(=O)[nH]c4=O)cc3Cl)ncc2O)C1 [Compound 139, 2-(2,6-dichloro-4-(6-(difluoromethyl)-3,5-dioxo-4,5-dihydro-1,2,4-triazin-2(3H)-yl)phenoxy)-5-hydroxy-N-((1r,3r)-3-methoxycyclobutyl)pyridine-4-sulfonamide]"
B (75~90),20 to 100,B (40~85),200 to 1000,"CO[C@H]1C[C@@H](NS(=O)(=O)c2cc(Oc3c(Cl)cc(-n4nc(C(F)F)c(=O)[nH]c4=O)cc3Cl)ncc2O)C1 [Compound 140, 2-(2,6-dichloro-4-(6-(difluoromethyl)-3,5-dioxo-4,5-dihydro-1,2,4-triazin-2(3H)-yl)phenoxy)-5-hydroxy-N-((1s,3s)-3-methoxycyclobutyl)pyridine-4-sulfonamide]"
B (75~90),2 to 20,B (40~85),2 to 200,"O=c1[nH]c(=O)n(-c2cc(Cl)c(Oc3cc(S(=O)(=O)N4CC[C@@H](O)C4)c(O)cn3)c(Cl)c2)nc1C(F)F [Compound 141, (R)-2-(3,5-dichloro-4-((5-hydroxy-4-((3-hydroxypyrrolidin-1-yl)sulfonyl)pyridin-2-yl)oxy)phenyl)-6-(difluoromethyl)-1,2,4-triazine-3,5(2H,4H)-dione]"
B (75~90),20 to 100,B (40~85),200 to 1000,"O=c1[nH]c(=O)n(-c2cc(Cl)c(Oc3cc(S(=O)(=O)NC45CC(O)(C4)C5)c(O)cn3)c(Cl)c2)nc1C(F)F [Compound 142, 2-(2,6-dichloro-4-(6-(difluoromethyl)-3,5-dioxo-4,5-dihydro-1,2,4-triazin-2(3H)-yl)phenoxy)-5-hydroxy-N-(3-hydroxybicyclo[1.1.1]pentan-1-yl)pyridine-4-sulfonamide]"
B (75~90),2 to 20,B (40~85),200 to 1000,"O=c1[nH]c(=O)n(-c2cc(Cl)c(Oc3cc(S(=O)(=O)N[C@H]4CC[C@H](O)CC4)c(O)cn3)c(Cl)c2)nc1C(F)F [Compound 143, 2-(2,6-dichloro-4-(6-(difluoromethyl)-3,5-dioxo-4,5-dihydro-1,2,4-triazin-2(3H)-yl)phenoxy)-5-hydroxy-N-((1r,4r)-4-hydroxycyclohexyl)pyridine-4-sulfonamide]"
C (<75),20 to 100,C (<40),> 1000,"O=c1[nH]c(=O)n(-c2cc(Cl)c(Oc3cc(S(=O)(=O)N[C@H]4CC[C@@H](O)CC4)c(O)cn3)c(Cl)c2)nc1C(F)F [Compound 144, 2-(2,6-dichloro-4-(6-(difluoromethyl)-3,5-dioxo-4,5-dihydro-1,2,4-triazin-2(3H)-yl)phenoxy)-5-hydroxy-N-((1s,4s)-4-hydroxycyclohexyl)pyridine-4-sulfonamide]"
B (75~90),2 to 20,B (40~85),2 to 200,"O=C(NC1CCC1)c1cc(Oc2c(Cl)cc(-n3nc(C(F)F)c(=O)[nH]c3=O)cc2Cl)ncc1O [Compound 145, N-cyclobutyl-2-[2,6-dichloro-4-[6-(difluoromethyl)-3,5-dioxo-1,2,4-triazin-2-yl]phenoxy]-5-hydroxy-pyridine-4-carboxamide]"
A (90~110),2 to 20,A (85~110),2 to 200,"CS(=O)(=O)c1cc(Oc2c(Cl)cc(-n3nc(C(F)F)c(=O)[nH]c3=O)cc2Cl)ncc1O [Compound 146, 2-[3,5-dichloro-4-[(5-hydroxy-4-methylsulfonyl-2-pyridyl)oxy]phenyl]-6-(difluoromethyl)-1,2,4-triazine-3,5-dione]"
A (90~110),20 to 100,B (40~85),200 to 1000,"CS(=O)(=O)c1cc(Oc2c(Cl)cc(-n3nc(C#N)c(=O)[nH]c3=O)cc2Cl)ncc1O [Compound 147, 2-[3,5-dichloro-4-[(5-hydroxy-4-methylsulfonyl-2-pyridyl)oxy]phenyl]-3,5-dioxo-1,2,4-triazine-6-carbonitrile]"
B (75~90),2 to 20,A (85~110),2 to 200,"O=c1[nH]c(=O)n(-c2cc(Cl)c(Oc3cc(S(=O)(=O)NC4CS(=O)(=O)C4)c(O)cn3)c(Cl)c2)nc1C(F)F [Compound 148, 2-[2,6-dichloro-4-[6-(difluoromethyl)-3,5-dioxo-1,2,4-triazin-2-yl]-phenoxy]-N-(1,1-dioxothietan-3-yl)-5-hydroxy-pyridine-4-sulfonamide]"
C (<75),> 100,C (<40),> 1000,"N#Cc1cc(O)c(S(=O)(=O)N[C@H]2C[C@H](O)C2)cc1Oc1c(Cl)cc(-n2nc(C(F)F)c(=O)[nH]c2=O)cc1Cl [Compound 149, 4-cyano-5-[2,6-dichloro-4-[6-(difluoromethyl)-3,5-dioxo-1,2,4-triazin-2-yl]phenoxy]-2-hydroxy-N-(3-hydroxycyclobutyl)benzenesulfonamide]"
A (90~110),2 to 20,A (85~110),2 to 200,N#Cc1nn(-c2cc(Cl)c(Oc3cc(S(=O)(=O)NC4CCC4)c(O)cn3)c(Cl)c2)c(=O)[nH]c1=O [Compound 150]
A (90~110),< 2,A (85~110),2 to 200,"CCS(=O)(=O)c1cc(Oc2c(Cl)cc(-n3nc(C(F)F)c(=O)[nH]c3=O)cc2Cl)ncc1O [Compound 151, 2-[3,5-dichloro-4-[(4-ethylsulfonyl-5-hydroxy-2-pyridyl)oxy]phenyl]-6-(difluoromethyl)-1,2,4-triazine-3,5-dione]"
